Test results reported in patent US20250082573A1, “COMPOSITIONS AND METHODS FOR DELIVERY OF OCULAR THERAPEUTICS” (The Board of Trustees of the Leland Stanford Junior …, priority 2023, published 2025).

Columns and labels:
[1] = following IV administration; cited from earlier work
[2] = VH mimic depot formation and model cargo release assay; assay type: physicochemical; settings: cargo in PNP hydrogel vs PBS bolus, 50 μL into VH mimic; fluorescein 0.25 mg mL^−1, albumin-FITC 10 mg mL^−1
Experimental: This example describes PNP-2-10 hydrogel depot formation and model cargo release in a VH mimic. The PNP-2-10 hydrogel was prepared as described in Example 1. The present technology is directed to ITV administration of PNP hydrogels in the sensitive environment of the eye. To better visualize and understand how the PNP hydrogels would behave in the VH, depot formation and model cargo release were analyzed in a VH mimic composed of agar and hyaluronic acid (HA). […]
To prepare the VH mimic release assay, 50 μL of PNP hydrogel or PBS loaded with either 0.25 mg mL^−1 fluorescein or 10 mg mL^−1 albumin-FITC (MW˜66 kDa, mol FITC:mol albumin=14) was injected through a 30-gauge needle into a cuvette containing a VH mimic. […] Dye release was quantified using ImageJ software. Images were separated into red, blue, and green channels and the intensity in the green channel within a region inside the hydrogel depot or initial PBS injection site was measured for each time point, denoted Itn. […] The fraction of dye remaining in the gel depot at the final time point was determined by comparing the change in background intensity from times t0 to tplateau for PBS and gel samples:
The percent of dye retained in the gel or PBS injection site at each time point tn was determined by normalizing the intensity as
where tf is the final time point measured and C is a constant defined by […]

Compound	elimination half-life [1]	increase of effective half-life of retention compared to the control PBS bolus [2]
CCNC(=O)CCC/C=C\C[C@@H]1[C@@H](/C=C/[C@@H](O)CCc2ccccc2)[C@H](O)C[C@@H]1O [bimatoprost]	45 min	–
albumin-FITC: a model protein, MW˜66 kDa, mol FITC:mol albumin=14	–	over 3.7 fold
